According to US20260355188A1, “COMBINATION THERAPIES USING PRMT5 INHIBITORS AND BCL-2 FAMILY INHIBITORS FOR THE TREATMENT OF CANCER” (MIRATI THERAPEUTICS, INC., priority 2022, published 2026):

Legend:
H2228 = test: In vitro combination synergy, H2228 (Cell-Titer Glo); assay type: cell-based; settings: combined with exemplary PRMT5 inhibitor, 120 h, sum of Loewe, Bliss, HSA and ZIP scores
Method: (§1) A panel of MTAP-deleted cancer cell lines was assembled to determine whether combining BCL-2 family inhibitors with exemplary PRMT5 inhibitors disclosed herein results in synergistic activity.
(§2) [Assays for determining the synergy score for the pairwise combinations for each cell line were performed in triplicate. 384 or 96-well plates plus additional wells of a separate 384 or 96-well control plate for determining baseline luminescence were seeded with cells of a particular MTAP-deleted cell line in a suitable growth medium for that cell line, e.g., RPMI 1640 medium supplemented with 10% FBS and any cell line specific reagents needed for growth. The plates were incubated overnight at 37 °C in a 5% CO2 atmosphere.
(§3) To each of the designated baseline wells, Cell-Titer Glo reagent (CTG; Promega Corporation) was added to each well and the plates were incubated for 20 min shaking at room temperature. Baseline luminescence was quantitated using a BMG ClarioStar multimode plate reader according to the manufacturer's instructions.
(§4) A series of 1000× drug dilutions in 100% DMSO was prepared that includes a 9-point single agent 3-fold dilution of the exemplary PRMT5 inhibitor (of the type described in WO2021/050915) with a top dose of 3000 nM (and a 6-point single agent 5-fold dilution of the BCL-2 family inhibitor with a top dose of 3000 nM as reference standards.
(§5) A 10× intermediate dosing plate was prepared in serum free medium that contains arrayed single agent dilutions of exemplary PRMT5 inhibitor (of the type described in WO2021/050915) and or the BCL-2 family inhibitor. In addition, a matrix of 54 dilution combinations of exemplary PRMT5 inhibitor (of the type described in WO2021/050915) and the BCL-2 family inhibitor was prepared as test samples.
(§6) To each corresponding well of the 384-well plates seeded with the appropriate cell line above, 10× single agent and the 54 combinations of the dose matrix was added and the plates were incubated for 120 hours at 37 °C in 5% CO2 atmosphere. Cell-Titer Glo reagent (CTG) was added to each test well, the plates were incubated for 20 min shaking at room temperature, and luminescence was quantitated using a BMG ClarioStar multimode plate reader according to the manufacturer's instructions. To normalize test samples, the determined baseline luminescence was subtracted from each test sample prior to analysis and mean values are calculated from replicate samples.
(§7) The output of the data from each mathematical model is the assignment of a relative synergy score. The data reported in Table 6 are the aggregate sum of the Loewe additivity, Bliss independence, Highest Single Agent and ZIP synergy scores (“Composite Synergy Score”).

Mero84 = test: In vitro combination synergy, Mero84 (Cell-Titer Glo); assay type: cell-based; settings: combined with exemplary PRMT5 inhibitor, 120 h, sum of Loewe, Bliss, HSA and ZIP scores
Method: as §1, §2, §3, §4, §5, §6, §7

SW1573 = test: In vitro combination synergy, SW1573 (Cell-Titer Glo); assay type: cell-based; settings: combined with exemplary PRMT5 inhibitor, 120 h, sum of Loewe, Bliss, HSA and ZIP scores
Method: as §1, §2, §3, §4, §5, §6, §7

H2452 = test: In vitro combination synergy, H2452 (Cell-Titer Glo); assay type: cell-based; settings: combined with exemplary PRMT5 inhibitor, 120 h, sum of Loewe, Bliss, HSA and ZIP scores
Method: as §1, §2, §3, §4, §5, §6, §7

LU99 = test: In vitro combination synergy, LU99 (Cell-Titer Glo); assay type: cell-based; settings: combined with exemplary PRMT5 inhibitor, 120 h, sum of Loewe, Bliss, HSA and ZIP scores
Method: as §1, §2, §3, §4, §5, §6, §7

A549 = test: In vitro combination synergy, A549 (Cell-Titer Glo); assay type: cell-based; settings: combined with exemplary PRMT5 inhibitor, 120 h, sum of Loewe, Bliss, HSA and ZIP scores
Method: as §1, §2, §3, §4, §5, §6, §7

HCC4006 = test: In vitro combination synergy, HCC4006 (Cell-Titer Glo); assay type: cell-based; settings: combined with exemplary PRMT5 inhibitor, 120 h, sum of Loewe, Bliss, HSA and ZIP scores
Method: as §1, §2, §3, §4, §5, §6, §7

Miapaca2 = test: In vitro combination synergy, Miapaca2 (Cell-Titer Glo); assay type: cell-based; settings: combined with exemplary PRMT5 inhibitor, 120 h, sum of Loewe, Bliss, HSA and ZIP scores
Method: as §1, §2, §3, §4, §5, §6, §7

Mero83 = test: In vitro combination synergy, Mero83 (Cell-Titer Glo); assay type: cell-based; settings: combined with exemplary PRMT5 inhibitor, 120 h, sum of Loewe, Bliss, HSA and ZIP scores
Method: as §1, §2, §3, §4, §5, §6, §7

H2052 = test: In vitro combination synergy, H2052 (Cell-Titer Glo); assay type: cell-based; settings: combined with exemplary PRMT5 inhibitor, 120 h, sum of Loewe, Bliss, HSA and ZIP scores
Method: as §1, §2, §3, §4, §5, §6, §7

Mero14 = test: In vitro combination synergy, Mero14 (Cell-Titer Glo); assay type: cell-based; settings: combined with exemplary PRMT5 inhibitor, 120 h, sum of Loewe, Bliss, HSA and ZIP scores
Method: as §1, §2, §3, §4, §5, §6, §7

SU8686 = test: In vitro combination synergy, SU8686 (Cell-Titer Glo); assay type: cell-based; settings: combined with exemplary PRMT5 inhibitor, 120 h, sum of Loewe, Bliss, HSA and ZIP scores
Method: as §1, §2, §3, §4, §5, §6, §7

H1650 = test: In vitro combination synergy, H1650 (Cell-Titer Glo); assay type: cell-based; settings: combined with exemplary PRMT5 inhibitor, 120 h, sum of Loewe, Bliss, HSA and ZIP scores
Method: as §1, §2, §3, §4, §5, §6, §7

H1437 = test: In vitro combination synergy, H1437 (Cell-Titer Glo); assay type: cell-based; settings: combined with exemplary PRMT5 inhibitor, 120 h, sum of Loewe, Bliss, HSA and ZIP scores
Method: as §1, §2, §3, §4, §5, §6, §7

RT4 = test: In vitro combination synergy, RT4 (Cell-Titer Glo); assay type: cell-based; settings: combined with exemplary PRMT5 inhibitor, 120 h, sum of Loewe, Bliss, HSA and ZIP scores
Method: as §1, §2, §3, §4, §5, §6, §7

LU99 xenograft tumors = test: In vivo combination study (LU99 model), Example 1; parameters: species or system female nu/nu mice; settings: MRTX1719, ABT-263, ABT-199 each 100 mg/kg PO QD, alone or combined
Excerpt: Immunodeficient female nu/nu mice were implanted with 5×10^6 LU99 cancer cells in 50% Matrigel. Tumor volume measurements were collected using calipers and determined utilizing the formula 0.5×L×W^2 in which L refers to length and W refers to width of each tumor. When tumors reached approximately 125-150 mm^3, animals were randomized to receive A) vehicle, B) a PRMT5 inhibitor, C) navitoclax (ABT-263), D) venetoclax (ABT-199), E) A-1331852, F) the PRMT5 inhibitor and navitoclax, F) the PRMT5 inhibitor and venetoclax, or G) the PRMT5 inhibitor and A-1331852 all administered orally (PO) with the indicated dose and schedule for 20-34 days. Tumor volume was measured twice a week (n=5/treatment group). Average tumor volume and standard error of the mean was calculated and plotted at each study day using GraphPad Prism.
The PRMT5 inhibitor was MRTX1719 administered at 100 mg/kg once a day (QD). MRTX1719 is (2M)-2-(4-(4-(aminomethyl)-1-oxo-1,2-dihydrophthalazin-6-yl)-1-methyl-1H-pyrazol-5-yl)-4-chloro-6-cyclopropoxy-3-fluorobenzonitrile, disclosed as Example 16-8 at p. 307 of the international patent publication No. WO 2021/050915 A1, published 18 Mar. 2021, incorporated by reference in its entirety.
The BCL-2 family inhibitors used in this example, ABT-199 (venetoclax) and ABT-263 (navitoclax), were administered at 100 mg/kg once a day (QD) and supplied by Selleck Chemicals (Houston, TX).

SMILES | Composite Synergy Score (H2228) | Composite Synergy Score (Mero84) | Composite Synergy Score (SW1573) | Composite Synergy Score (H2452) | Composite Synergy Score (LU99) | Composite Synergy Score (A549) | Composite Synergy Score (HCC4006) | Composite Synergy Score (Miapaca2) | Composite Synergy Score (Mero83) | Composite Synergy Score (H2052) | Composite Synergy Score (Mero14) | Composite Synergy Score (SU8686) | Composite Synergy Score (H1650) | Composite Synergy Score (H1437) | Composite Synergy Score (RT4) | further results
CN(C)CC#Cc1ccc(OCCCc2sc(N3CCc4cccc(C(=O)Nc5nc6ccccc6s5)c4C3)nc2C(=O)O)c(F)c1 [A-1155463] | 46 | 0 | 29 | 37 | 27 | 22 | 88 | 44 | −11 | 14 | 12 | 50 | 51 | 17 | 37 | 
CC1(C)CCC(CN2CCN(c3ccc(C(=O)NS(=O)(=O)c4ccc(NCC5CCOCC5)c([N+](=O)[O-])c4)c(Oc4cnc5[nH]ccc5c4)c3)CC2)=C(c2ccc(Cl)cc2)C1 [ABT-199, venetoclax] | −13 | −12 | −16 | 28 | −8 | −7 | −6 | −7 | 20 | −33 | −8 | 4 | −11 | 2 | 0 | Average Tumor Volume (LU99 xenograft tumors; day 3): 270 mm^3; Average Tumor Volume (LU99 xenograft tumors; day 6): 462 mm^3; Average Tumor Volume (LU99 xenograft tumors; day 10): 709 mm^3; Average Tumor Volume (LU99 xenograft tumors; day 13): 956 mm^3; Average Tumor Volume (LU99 xenograft tumors; day 17): 1395 mm^3; Average Tumor Volume (LU99 xenograft tumors; day 20): 1675 mm^3; Average Tumor Volume (LU99 xenograft tumors; day −1): 153 mm^3
